In patent US20230055705A1, “SUBSTITUTED THIOPHENE CARBOXAMIDES AND DERIVATIVES THEREOF” (Bayer Aktiengesellschaft, priority 2019, published 2023):

Test system: not listed separately
Assay: LogP by HPLC on reversed phase columns (EEC directive 79/831 Annex V.A8)
Type: physicochemical
Details: reversed phase HPLC columns, method [a]: LC-UV, in an acidic range, with 0.1% formic acid in water and acetonitrile as eluent (linear gradient from 10% to 95% acetonitrile)
Method in brief: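 Reversed-phase HPLC per EEC directive 79/831 Annex V.A8. Calibrated with straight-chain alkan-2-ones (C3–C16) of known LogP, LogP from retention times by linear interpolation between successive alkanones. Lambda-max taken from UV spectra (200–400 nm) at chromatographic peak maxima.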

SMILES | chromatographic logP
COC(=O)C(Cc1c[nH]cn1)NC(=O)c1sc(Cl)c(Cl)c1Cl (stereo not drawn) [I.012] | 1.5
COC(=O)[C@H](CC(N)=O)NC(=O)c1sc(Cl)c(Cl)c1Cl [I.015] | 2.16
COC(=O)C(CC(F)F)NC(=O)c1sc(Cl)c(Cl)c1Cl (stereo not drawn) [I.016] | 3.55
CCOC(=O)C(CC(N)=O)NC(=O)c1sc(Cl)c(Cl)c1Cl (stereo not drawn) [I.046] | 2.35
CCOC(=O)C(CC(F)(F)F)NC(=O)c1sc(Cl)c(Cl)c1Cl (stereo not drawn) [I.048] | 4.27
C[C@H](NC(=S)c1sc(Cl)c(Cl)c1Cl)C(=O)O [I.113] | 3.5
C[C@H](NC(=O)c1sc(Cl)c(Cl)c1Cl)C(N)=O [I.119] | 2.16

Test system: Xanthomonas campestris pv. campestris
Assay: In vivo preventive test on Xanthomonas campestris pv. campestris (black rot on cabbage)
Details: 31 ppm of active ingredient, evaluated 8 or 10 days after inoculation, read-out: efficacy
Method in brief: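 Young cabbage plants sprayed with compound in acetone/DMSO/Tween diluted in water; solvent-only controls. Leaves sprayed with bacterial suspension 72 h later, then held 8 or 10 days at 27° C and 95% relative humidity. Efficacy scored 8 or 10 days post-inoculation, 0% matching controls, 100% meaning no disease.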

SMILES | pest or weed control at 31 ppm [%]
COC(=O)C(Cc1c[nH]cn1)NC(=O)c1sc(Cl)c(Cl)c1Cl (stereo not drawn) [I.012] | 80 to 89
COC(=O)[C@H](CC(N)=O)NC(=O)c1sc(Cl)c(Cl)c1Cl [I.015] | 90 to 100
COC(=O)C(CC(F)F)NC(=O)c1sc(Cl)c(Cl)c1Cl (stereo not drawn) [I.016] | 90 to 100
CCOC(=O)C(CC(N)=O)NC(=O)c1sc(Cl)c(Cl)c1Cl (stereo not drawn) [I.046] | 90 to 100
C[C@H](NC(=S)c1sc(Cl)c(Cl)c1Cl)C(=O)O [I.113] | 80 to 89

Same assay, conditions: 125 ppm of active ingredient, evaluated 8 or 10 days after inoculation, read-out: efficacy

SMILES | pest or weed control at 125 ppm [%]
CCOC(=O)C(CC(N)=O)NC(=O)c1sc(Cl)c(Cl)c1Cl (stereo not drawn) [I.046] | 90 to 100
CCOC(=O)C(CC(F)(F)F)NC(=O)c1sc(Cl)c(Cl)c1Cl (stereo not drawn) [I.048] | 90 to 100

Test system: Pseudomonas syringae pv. tomato
Assay: In vivo preventive test on Pseudomonas syringae pv. tomato (bacterial speck on tomato)
Details: 31 ppm of active ingredient, evaluated 5 or 6 days after inoculation, read-out: efficacy
Method in brief: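 Young tomato plants sprayed with compound in acetone/DMSO/Tween diluted in water; solvent-only controls. Inoculated 72 h later by spraying leaves with bacterial suspension; 4 days saturated atmosphere then 1–2 days at 70–80% RH, 22 °C day/20 °C night. Efficacy scored 5–6 days post-inoculation, 0% = control, 100% = no disease.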

SMILES | pest or weed control at 31 ppm [%]
COC(=O)C(Cc1c[nH]cn1)NC(=O)c1sc(Cl)c(Cl)c1Cl (stereo not drawn) [I.012] | ≥ 70
COC(=O)[C@H](CC(N)=O)NC(=O)c1sc(Cl)c(Cl)c1Cl [I.015] | 80 to 89
COC(=O)C(CC(F)F)NC(=O)c1sc(Cl)c(Cl)c1Cl (stereo not drawn) [I.016] | 70 to 79
C[C@H](NC(=O)c1sc(Cl)c(Cl)c1Cl)C(N)=O [I.119] | 70 to 79

Same assay, conditions: 500 ppm of active ingredient, evaluated 5 or 6 days after inoculation, read-out: efficacy

SMILES | pest or weed control at 500 ppm [%]
COC(=O)C(CC(F)F)NC(=O)c1sc(Cl)c(Cl)c1Cl (stereo not drawn) [I.016] | 90 to 100
CCOC(=O)C(CC(F)(F)F)NC(=O)c1sc(Cl)c(Cl)c1Cl (stereo not drawn) [I.048] | 70 to 79
C[C@H](NC(=O)c1sc(Cl)c(Cl)c1Cl)C(N)=O [I.119] | 90 to 100

Test system: Peronospora parasitica
Assay: In vivo preventive test on Peronospora parasitica (Crucifer downy mildew)
Details: Hyaloperonospora parasitica, in Brassica oleracea, 120 h, 31 ppm of active ingredient, cabbage, evaluated 5 days after inoculation, read-out: efficacy
Method in brief: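 Young cabbage plants were sprayed with compound in acetone/DMSO/Tween diluted with water, then inoculated 72 h later with a Peronospora parasitica spore suspension. Plants were kept 5 days at 20 °C and 100% RH. Efficacy was scored with 0% equal to solvent-treated controls and 100% meaning no disease.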

SMILES | pest or weed control at 31 ppm [%]
COC(=O)C(Cc1c[nH]cn1)NC(=O)c1sc(Cl)c(Cl)c1Cl (stereo not drawn) [I.012] | 70 to 79
COC(=O)[C@H](CC(N)=O)NC(=O)c1sc(Cl)c(Cl)c1Cl [I.015] | 90 to 100
COC(=O)C(CC(F)F)NC(=O)c1sc(Cl)c(Cl)c1Cl (stereo not drawn) [I.016] | 90 to 100
CCOC(=O)C(CC(N)=O)NC(=O)c1sc(Cl)c(Cl)c1Cl (stereo not drawn) [I.046] | 90 to 100
CCOC(=O)C(CC(F)(F)F)NC(=O)c1sc(Cl)c(Cl)c1Cl (stereo not drawn) [I.048] | 90 to 100
C[C@H](NC(=S)c1sc(Cl)c(Cl)c1Cl)C(=O)O [I.113] | 80 to 89
C[C@H](NC(=O)c1sc(Cl)c(Cl)c1Cl)C(N)=O [I.119] | 90 to 100

Same assay, conditions: Hyaloperonospora parasitica, in Brassica oleracea, 120 h, 125 ppm of active ingredient, cabbage, evaluated 5 days after inoculation, read-out: efficacy

SMILES | pest or weed control at 125 ppm [%]
COC(=O)C(Cc1c[nH]cn1)NC(=O)c1sc(Cl)c(Cl)c1Cl (stereo not drawn) [I.012] | 90 to 100
COC(=O)[C@H](CC(N)=O)NC(=O)c1sc(Cl)c(Cl)c1Cl [I.015] | 90 to 100
COC(=O)C(CC(F)F)NC(=O)c1sc(Cl)c(Cl)c1Cl (stereo not drawn) [I.016] | 90 to 100
CCOC(=O)C(CC(N)=O)NC(=O)c1sc(Cl)c(Cl)c1Cl (stereo not drawn) [I.046] | 90 to 100
CCOC(=O)C(CC(F)(F)F)NC(=O)c1sc(Cl)c(Cl)c1Cl (stereo not drawn) [I.048] | 90 to 100
C[C@H](NC(=S)c1sc(Cl)c(Cl)c1Cl)C(=O)O [I.113] | 90 to 100
C[C@H](NC(=O)c1sc(Cl)c(Cl)c1Cl)C(N)=O [I.119] | 90 to 100

Same assay, conditions: Hyaloperonospora parasitica, in Brassica oleracea, 120 h, 500 ppm of active ingredient, cabbage, evaluated 5 days after inoculation, read-out: efficacy

SMILES | pest or weed control at 500 ppm [%]
COC(=O)C(Cc1c[nH]cn1)NC(=O)c1sc(Cl)c(Cl)c1Cl (stereo not drawn) [I.012] | 90 to 100
COC(=O)C(CC(F)F)NC(=O)c1sc(Cl)c(Cl)c1Cl (stereo not drawn) [I.016] | 90 to 100
CCOC(=O)C(CC(N)=O)NC(=O)c1sc(Cl)c(Cl)c1Cl (stereo not drawn) [I.046] | 90 to 100
CCOC(=O)C(CC(F)(F)F)NC(=O)c1sc(Cl)c(Cl)c1Cl (stereo not drawn) [I.048] | 90 to 100
C[C@H](NC(=S)c1sc(Cl)c(Cl)c1Cl)C(=O)O [I.113] | 90 to 100

Test system: Colletotrichum lindemuthianum
Assay: Colletotrichum lindemuthianum in vitro cell test
Type: cell-based
Details: 144 h, 20 ppm of active ingredient, 6 days incubation, read-out: efficacy (inhibition of fungal growth)
Description: • Solvent: DMSO • Culture medium: 14.6 g anhydrous D-glucose (VWR), 7.1 g Mycological Peptone (Oxoid), 1.4 g granulated Yeast Extract (Merck), QSP 1 liter • Inoculum: spores suspension
Fungicides were solubilized in DMSO and the solution used to prepare the required range of concentrations. The final concentration of DMSO used in the assay was ≤[…]1%.
A spore suspension of C. lindemuthianum was prepared and diluted to the desired spore density.
Fungicides were evaluated for their ability to inhibit spores germination and mycelium growth in liquid culture assay. The compounds were added in the desired concentration to the culture medium with spores. After 6 days incubation, fungi-toxicity of compounds was determined by spectrometric measurement of mycelium growth. Inhibition of fungal growth was determined by comparing the absorbance values in wells containing the fungicides with the absorbance in control wells without fungicides.

SMILES | inhibition at 20 ppm [%]
COC(=O)C(Cc1c[nH]cn1)NC(=O)c1sc(Cl)c(Cl)c1Cl (stereo not drawn) [I.012] | ≤ 30
COC(=O)[C@H](CC(N)=O)NC(=O)c1sc(Cl)c(Cl)c1Cl [I.015] | ≤ 30
COC(=O)C(CC(F)F)NC(=O)c1sc(Cl)c(Cl)c1Cl (stereo not drawn) [I.016] | ≤ 30
CCOC(=O)C(CC(N)=O)NC(=O)c1sc(Cl)c(Cl)c1Cl (stereo not drawn) [I.046] | ≤ 30
CCOC(=O)C(CC(F)(F)F)NC(=O)c1sc(Cl)c(Cl)c1Cl (stereo not drawn) [I.048] | ≤ 30
C[C@H](NC(=S)c1sc(Cl)c(Cl)c1Cl)C(=O)O [I.113] | ≤ 30
C[C@H](NC(=O)c1sc(Cl)c(Cl)c1Cl)C(N)=O [I.119] | ≤ 30

Test system: Colletotrichum lindemuthianum
Assay: In vivo preventive test on Colletotrichum lindemuthianum (Antrachnose on bean)
Details: 144 h, 31 ppm of active ingredient, inoculation 72 h after spraying, evaluated 6 days after inoculation, read-out: efficacy
Method in brief: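 Young bean plants sprayed preventively with compound in acetone/DMSO/Tween diluted in water, then spore-inoculated 72 h later. Incubation 24 h at 20° C./100% RH, then 5 days at 20° C./90% RH; scored 6 days post-inoculation as % efficacy (0% = solvent-treated control, 100% = no disease).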

SMILES | pest or weed control at 31 ppm [%]
COC(=O)C(CC(F)F)NC(=O)c1sc(Cl)c(Cl)c1Cl (stereo not drawn) [I.016] | 80 to 89
CCOC(=O)C(CC(N)=O)NC(=O)c1sc(Cl)c(Cl)c1Cl (stereo not drawn) [I.046] | 80 to 89
C[C@H](NC(=O)c1sc(Cl)c(Cl)c1Cl)C(N)=O [I.119] | 70 to 79

Same assay, conditions: 144 h, 500 ppm of active ingredient, inoculation 72 h after spraying, evaluated 6 days after inoculation, read-out: efficacy

SMILES | pest or weed control at 500 ppm [%]
COC(=O)C(Cc1c[nH]cn1)NC(=O)c1sc(Cl)c(Cl)c1Cl (stereo not drawn) [I.012] | 90 to 100
COC(=O)C(CC(F)F)NC(=O)c1sc(Cl)c(Cl)c1Cl (stereo not drawn) [I.016] | 90 to 100
CCOC(=O)C(CC(N)=O)NC(=O)c1sc(Cl)c(Cl)c1Cl (stereo not drawn) [I.046] | 90 to 100
CCOC(=O)C(CC(F)(F)F)NC(=O)c1sc(Cl)c(Cl)c1Cl (stereo not drawn) [I.048] | 80 to 89
C[C@H](NC(=S)c1sc(Cl)c(Cl)c1Cl)C(=O)O [I.113] | 90 to 100
C[C@H](NC(=O)c1sc(Cl)c(Cl)c1Cl)C(N)=O [I.119] | 90 to 100

Test system: Xanthomonas campestris pv. campestris
Assay: Xanthomonas campestris pv. campestris in vitro cell test
Type: cell-based
Details: 20 ppm of active ingredient, 24 h incubation, read-out: efficacy (inhibition of bacteria growth)
Method in brief: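 Bacteria from a liquid pre-culture, diluted to a set OD, were grown in LB broth with compound at the required concentrations (final DMSO ≤1%). After 24 h, growth was read spectrometrically. Inhibition was derived from absorbance versus compound-free controls.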

SMILES | inhibition at 20 ppm [%]
COC(=O)C(Cc1c[nH]cn1)NC(=O)c1sc(Cl)c(Cl)c1Cl (stereo not drawn) [I.012] | ≤ 30
COC(=O)[C@H](CC(N)=O)NC(=O)c1sc(Cl)c(Cl)c1Cl [I.015] | ≤ 30
COC(=O)C(CC(F)F)NC(=O)c1sc(Cl)c(Cl)c1Cl (stereo not drawn) [I.016] | ≤ 30
CCOC(=O)C(CC(N)=O)NC(=O)c1sc(Cl)c(Cl)c1Cl (stereo not drawn) [I.046] | ≤ 30
CCOC(=O)C(CC(F)(F)F)NC(=O)c1sc(Cl)c(Cl)c1Cl (stereo not drawn) [I.048] | ≤ 30
C[C@H](NC(=S)c1sc(Cl)c(Cl)c1Cl)C(=O)O [I.113] | ≤ 30
C[C@H](NC(=O)c1sc(Cl)c(Cl)c1Cl)C(N)=O [I.119] | ≤ 30
